Experimental findings from patent US4304853A, “Method of determination for proteases and antiproteases” (priority 1979, dated 1981) are described below.

Experiment [1] concerns trypsin. The experiment is described as follows: Amperometric determination of substrate hydrolysis by trypsin (oxidation current of liberated pADA). The format is biochemical. As to the method:
(§1) (a) A potentiostat, which is intended to maintain a constant potential difference between the measurement electrode and the reference electrode. A saw-tooth function generator, which generates a potential which varies between -0.1 and +0.4 V at a rate of 0.2 V/second. A graphic recorder with a good dynamic performance. A polytetrafluoroethylene cell which has a capacity of 5 ml and can hold three electrodes.
(b) Measurement electrode: This consists of a platinum plate which is surrounded by a cylinder of polytetrafluoroethylene (surface area 0.0314 cm^2).
(§2) (e) Solutions: The stock solutions of the enzyme (solution E) and of the substrate (solution S) are freshly prepared. The test solution, to which a given amount of E is added at the time t=0 of the kinetics, is termed A. The buffer, which has a pH of 8.15, is made up of 0.025 M Veronal^(R) and NaCl with an ionic strength of F=0.15.
(§3) (f) Example of an electrode made of carbon paste: 15 g of pure carbon powder are mixed with 9 ml of paraffin oil, for example that sold commercially under the trade name Nujol^(R). An electrode with a surface area of 0.16 cm^2 and a thickness of 3 mm can be shaped from the homogeneously mixed paste.
(§4) The measurement electrode is preconditioned in solution A without the enzyme, in order to impart to it a reproducible and precisely defined surface state before each cycle.
(§5) The preconditioning is achieved by applying a potential which has a saw-tooth profile and changes as a function of time, the potential varying between -0.1 and +b 0.4 V and changing at a rate of 0.2 V/second.
(§6) The electrode can then be used for the kinetic determinations, for which purpose the same saw-tooth potential as for the conditioning is applied every 60 seconds.
After deducting the base current at the particular potential, the current levels recorded at the maximum value of any one wave i=f(U) are proportional to the concentration of the electroactive species liberated during the hydrolysis. […]
The enzyme solution is added at the end of the potentiodynamic cycle which serves to record the base current (the base current has been shifted downwards; it is represented by the broken line). The concentrations corresponding to the current maxima can be read off from the calibration curve (FIG. 3). The conversion is determined as a function of time (maximum 30 minutes). […]
The reciprocal value of the rate (1/V) has been plotted as the ordinate and the reciprocal value of the concentration of the substrate (1/S) has been plotted as the abscissa. The reciprocal value of the rate 1/V was expressed as follows: either as (μA/minute--10 μg of enzyme)^-1 or as (μ mol×10^3 of pADA/minute--10 μg of enzyme). The points o represent an average value of 10 measured values for the rate and the points X represent a graphical average value. […]

The test system of experiment [2] is thrombin. The experiment is described as follows: Amperometric determination of substrate hydrolysis by thrombin (oxidation current of liberated amine). In kind it is biochemical. As for the experimental part:
as §1, §2, §3, §4, §5, §6
After deducting the base current at the particular potential, the current levels recorded at the maximum value of any one wave i=f(U) are proportional to the concentration of the electroactive species liberated during the hydrolysis. In the case of short hydrolysis times, a plot of the current levels against time is linear. The relationship between the enzyme concentration E (in μg/ml) and the rate of hydrolysis at time 0 (represented by the ratio (di/dt)o in μA/minute, that is to say by the gradient of the curve i=f (t) at the origin) for an electrode with a surface area of 1 cm^2 is given by the following formula: […]
The procedure is similar to that for trypsin and is also suitable for the determination of further enzymes, also with the aid of other substrates.
These constants (summarized in Table II below) have been obtained with the aid of the electrode prepared in accordance with Example I f).

Where [3] appears, read: carbon paste electrode, buffer a: Tris (0.025 M), NaCl (0.12 M), glycine (0.05 M), DMSO 4.76%, 20° C., pH 8.3.
Setting [4] is: carbon paste electrode, buffer a: Tris (0.025 M), NaCl (0.12 M), glycine (0.05 M), DMSO 4.76%, 20° C., pH 8.3, read-out: KM: Michaelis constant.

The structures appear in SMILES notation. Structures can show the parent of a compound that is named as a salt. Where two headings read alike, the source gives them in different places.

`N=C(N)NCCCC(NC(=O)c1ccccc1)C(=O)Nc1ccc(Nc2ccccc2)cc1` (racemic) [D,L-BAPADA, benzoyl-D,L-arginine-p-aminodiphenyl-amide, HCl]: in experiment [1] (carbon paste electrode, buffer b: Veronal (0.025 M), NaCl (0.12 M), DMSO 6.35%, 30° C., pH 8.4), the “VM: maximum rate” value is recorded as 0.00096 μmole/minute I.U. Moreover, the Km in experiment [1] (carbon paste electrode, buffer b: Veronal (0.025 M), NaCl (0.12 M), DMSO 6.35%, 30° C., pH 8.4, read-out: KM: Michaelis constant) is 800 µM; in experiment [1] (hydrolysis with trypsin 10 μg/ml, 30° C., pH 8.15 (TRIS), DMSO 6.35%, LINEWEAVER-BURK diagram FIG. 7, read-out: MICHAELIS-MENTEN constant Km) it was 800 µM. Moreover, in experiment [1] (hydrolysis of the substrate with 1 mM of trypsin for one minute, per cm^2 of electrode surface area, Veronal buffer pH 8.15), the “Standardization: current after hydrolysis for one minute” value is 0.295 μA/cm^2.
With `COc1cc(NC(=O)[C@H](CCCNC(=N)N)NC(=O)[C@@H]2CCCCN2C(=O)[C@H](N)Cc2ccccc2)cc2ccccc12` [H--D--Phe--Pip--Arg--4--MBNA], the “VM: maximum rate” value in experiment [2] (setting [3]) is on record as 0.020 μmole/minute I.U. Also, the Km in experiment [2] (setting [4]) was determined as 37 µM.
As to `N=C(N)NCCC[C@H](NC(=O)[C@@H]1CCCCN1C(=O)[C@H](N)Cc1ccccc1)C(=O)Nc1ccc(Nc2ccccc2)cc1` [HDL, H-D-phenylalanyl-L-pipecolyl-L-arginyl-p-amino-diphenylamide dihydrochloride], the “Standardization: current after hydrolysis for one minute” value in experiment [2] (0.1 mM of substrate with 0.01 I.U. of thrombin for one minute, Veronal buffer) came out at 0.217 μA/cm^2. The “VM: maximum rate” value in experiment [2] (setting [3]) worked out at 0.10 μmole/minute I.U. The Km worked out at 10 µM in experiment [2] (setting [4]) and 10 µM in experiment [2] (hydrolysis with thrombin, procedure similar to that for trypsin, Veronal buffer, read-out: Km). Moreover, the Vm in experiment [2] (hydrolysis with thrombin, procedure similar to that for trypsin, Veronal buffer) is 1.1×10^-7 moles/minute×I.U.
